Laboratory results: ChEMBL document CHEMBL1201862, “PubChem BioAssay data set” (2004)
Calls of active or inactive are those of the source.

Columns and labels:
[1] = target: T1, Methionyl-tRNA synthetase, putative (Trypanosoma brucei brucei, UniProt Q38C91); format: functional, Trypanosoma brucei brucei strain 927/4 GUTat10.1
[2] = Counterscreen for inhibitors of Trypanosoma brucei methionyl tRNA synthetase (MetRS): Luminescence-based cell-based high throughput dose response assay to identify compounds that are cytotoxic to Jurkat human T lymphocyte cells.; format: functional
[3] = target: T2, Carboxy-terminal domain RNA polymerase II polypeptide A small phosphatase 1 (Homo sapiens, UniProt Q9GZU7); assay: CTDSP1 inhibitors, concentration-response, biochemical, absorbance readout, ultra-high-throughput screen actives (AID 540297); format: functional
T2 sequence (Q9GZU7 whole entry): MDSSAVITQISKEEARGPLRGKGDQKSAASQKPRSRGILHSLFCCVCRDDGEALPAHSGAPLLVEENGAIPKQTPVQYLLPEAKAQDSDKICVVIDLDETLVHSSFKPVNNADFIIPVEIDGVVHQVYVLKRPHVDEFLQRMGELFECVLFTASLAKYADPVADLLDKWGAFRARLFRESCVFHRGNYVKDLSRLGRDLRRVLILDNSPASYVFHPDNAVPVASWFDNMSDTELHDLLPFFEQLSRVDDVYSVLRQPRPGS

[4] = target: T1, Methionyl-tRNA synthetase, putative; format: functional, Trypanosoma brucei brucei strain 927/4 GUTat10.1; remark: listed apart in the source
[5] = intracellular Trypanosoma cruzi inhibitors in host cells – cell-based, plate reader, cherry-pick samples, set 3, dose response (AID 651818); format: functional;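 note: compounds incubated with infected cells for about four days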
[6] = mouse fibroblast viability loss – cell-based, cherry-pick samples, set 2, cytotoxicity control for T. cruzi growth inhibitor project, dose response (AID 651817); format: functional; conditions: NIH3T3
[7] = microbe, parasite or virus in culture; format: functional; conditions: Mycobacterium tuberculosis
BJ [8] = assay: BJ-TERT-LT-ST fibroblast viability loss – cell-based, RAS-independent, luminescence, dose response (AID 1935); format: functional; conditions: Homo sapiens;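 note: BJ fibroblasts immortalized with TERT plus LT and ST oncogenes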
BJ [9] = assay: BJ-TERT fibroblast viability loss – cell-based, RAS-independent, luminescence, dose response (AID 1933); format: functional; conditions: Homo sapiens
BJ [10] = assay: growth inhibition of engineered Ras-driven BJ cells – cell-based, alamar blue fluorescence, cherrypicked samples, dose response (AID 2631); format: functional; conditions: Homo sapiens;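 note: confirmatory dose-response assay in RAS-dependent BJ fibroblasts engineered with TERT, LT and ST, with cytotoxicity read by fluorescence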
[11] = DRD fibroblast viability loss – cell-based, non-viral oncogenic, luminescence, dose response (AID 1934); format: functional; conditions: Homo sapiens
[12] = Fluorescence-based cell-based high throughput dose response assay for inhibitors of the interaction of nucleotide-binding oligomerization domain containing 2 (NOD2) and the receptor-interacting serine-threonine kinase 2 (RIPK2).; format: functional; conditions: Homo sapiens
INS1 = assay: INS-1E survival protection against cytokine death – cell-based, luminescence, retest, dose response (AID 449756); format: functional; conditions: Rattus norvegicus;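 note: cell death triggered by IL-1 beta plus TNF-alpha plus IFN-gamma mixture; protective hits raise ATP signal compared with cytokine alone wells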
BJ [13] = assay: cells; format: functional, cell-based; conditions: Homo sapiens
Genome polyprotein [14] = target: T3, Genome polyprotein (Hepatitis C virus, UniProt Q2Q167); assay: Late stage assay provider counterscreen results for the probe development effort to identify inhibitors of Hepatitis C Virus (HCV) core protein dimerization: Luminescence-based biochemical AlphaScreen assay to identify inhibitors of HCV core dimerization.; format: functional, Hepacivirus hominis
T3 sequence (Q2Q167 whole entry): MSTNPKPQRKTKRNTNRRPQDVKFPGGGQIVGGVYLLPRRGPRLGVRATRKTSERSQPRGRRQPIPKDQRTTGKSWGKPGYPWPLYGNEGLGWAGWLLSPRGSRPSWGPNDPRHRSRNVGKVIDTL

Genome polyprotein [15] = target: T3, Genome polyprotein; assay: disruption of hepatitis C core self-association – biochemical, TR-FRET, dose response (AID 2159); design: species or system Hepacivirus hominis;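 note: blocks dimerization of HCV core protein measured by TR-FRET between tagged core106 pairs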
[16] = viability loss in HEK293 cells – cell-based, plate reader, cherry-picked samples, cytotoxicity control, dose response (AID 743446); format: functional
[17] = blockers of bursicon-stimulated LGR2 cAMP reporter – cell-based, HEK293, CRE-luciferase reporter, cherry pick, set 2, dose response (AID 743343); format: functional;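 note: transfected cells were stimulated with diluted bursicon conditioned medium after compound addition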
[18] = loss of viability in HepG2 cells – cell-based, CellTiter-Glo, cherry-picked, cytotoxicity control for Shn3 inhibitor project, dose response (AID 624134); format: functional
[19] = A549 cell cytotoxicity, dose response, cytotoxicity control, plate reader, cherry-pick, antagonist series (AID 743412); format: functional, cell-based
Paired box protein Pax-8 = Paired box protein Pax-8 (Homo sapiens, UniProt Q06710); assay: PAX8 transcriptional activity inhibition in RMG-I – RMG-I cells, luciferase, cherry-pick, dose response (AID 687027); format: functional, cell-based;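 note: luciferase reporter driven by Pax8 target thyroperoxidase promoter measured by SteadyGlo luminescence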
[20] = target: T4, Heat shock factor protein 1 (Mus musculus, UniProt P38532); assay: decrease of HSF1-responsive luciferase luminescence – cell-based, NIH3T3, dose retest, confirmation (AID 2382); format: functional;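 note: NIH3T3 fibroblasts with HSF1-driven luciferase reporter stressed by proteasome inhibitor MG132; luminescence from HSF1-driven luciferase expression after 8 hours of MG132 stress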
T4 sequence (P38532 whole entry): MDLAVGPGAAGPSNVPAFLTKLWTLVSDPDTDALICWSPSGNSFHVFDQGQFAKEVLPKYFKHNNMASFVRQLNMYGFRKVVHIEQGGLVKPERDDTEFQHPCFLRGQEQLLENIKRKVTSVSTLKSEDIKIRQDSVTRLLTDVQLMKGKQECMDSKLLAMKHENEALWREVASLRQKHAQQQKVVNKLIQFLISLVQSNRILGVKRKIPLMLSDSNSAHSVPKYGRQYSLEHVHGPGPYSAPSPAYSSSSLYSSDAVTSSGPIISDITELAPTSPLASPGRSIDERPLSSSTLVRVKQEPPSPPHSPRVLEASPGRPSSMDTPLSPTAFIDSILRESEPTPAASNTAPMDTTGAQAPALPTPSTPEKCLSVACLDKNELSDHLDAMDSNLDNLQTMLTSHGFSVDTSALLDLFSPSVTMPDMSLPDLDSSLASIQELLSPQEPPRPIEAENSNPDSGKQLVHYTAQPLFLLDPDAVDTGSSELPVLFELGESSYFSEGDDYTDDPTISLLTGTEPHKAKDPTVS

[21] = toxicity toward HepG2 liver cells – cell-based, plate reader, cherry-pick, antagonist series, cytotoxicity control, dose response (AID 743416); format: functional
[22] = reduction of Shn3 3'UTR-driven luciferase in osteoblasts – cell-based, Clone20 osteoblasts, firefly luciferase, cherry-picked, dose response (AID 624132); format: functional;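 note: firefly luciferase luminescence from reporter carrying the Shn3 3'UTR in osteoblasts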
[23] = target: T5, Microphthalmia-associated transcription factor (Homo sapiens, UniProt O75030); assay: reducers of TRPM1 reporter luminescence, concentration series – cell-based, SK-MEL-5, cherry-picked, set 3, MITF inhibitor project, dose response (AID 493073); format: functional;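 note: SK-MEL-5 melanoma cells with luciferase driven by the MITF target TRPM1 promoter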
T5 sequence (O75030 whole entry): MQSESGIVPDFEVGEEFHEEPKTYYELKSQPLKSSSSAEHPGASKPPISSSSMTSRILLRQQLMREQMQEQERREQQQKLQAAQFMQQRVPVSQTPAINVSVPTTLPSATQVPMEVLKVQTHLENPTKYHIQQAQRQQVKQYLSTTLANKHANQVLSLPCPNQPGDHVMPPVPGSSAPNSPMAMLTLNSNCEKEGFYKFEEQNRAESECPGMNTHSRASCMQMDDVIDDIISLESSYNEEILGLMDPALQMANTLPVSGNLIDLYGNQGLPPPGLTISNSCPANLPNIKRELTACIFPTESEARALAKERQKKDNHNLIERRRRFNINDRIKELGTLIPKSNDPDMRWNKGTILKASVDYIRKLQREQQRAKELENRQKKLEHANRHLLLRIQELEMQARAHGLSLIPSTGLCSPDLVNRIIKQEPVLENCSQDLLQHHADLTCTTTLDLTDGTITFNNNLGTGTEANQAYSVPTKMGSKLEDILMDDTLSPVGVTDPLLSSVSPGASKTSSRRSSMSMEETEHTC

Interleukin-8 [24] = target: T6, Interleukin-8 (Homo sapiens, UniProt P10145); assay: Dose Response confirmation of uHTS small molecule hits for cystic fibrosis induced NFkb Inhibitors in a PAF-induced IL8 counterscreen.; format: functional; conditions: read-out: IC50_Mean
[25] = non-specific 3'UTR reporter inhibition in Clone20-Shn3RL – cell-based, Renilla luciferase, cherry-picked, counter-screen for Shn3 inhibitor project, dose response (AID 624133); format: functional
Interleukin-8 [26] = target: T6, Interleukin-8; assay: Dose Response confirmation of uHTS small molecule hits for cystic fibrosis induced NFkb Inhibitors in a TNFa-induced IL8 counterscreen.; format: functional; conditions: read-out: IC50_Mean
[27] = blockade of melanocortin 4 receptor signaling – cell-based, plate reader, cherry pick, counter-screen for LGR2 antagonist project, dose response (AID 743444); format: functional;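 note: transfected HEK 293 cells stimulated with alpha-MSH peptide; potency of inhibitors of the alpha-MSH evoked signal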

T6 sequence (P10145 whole entry): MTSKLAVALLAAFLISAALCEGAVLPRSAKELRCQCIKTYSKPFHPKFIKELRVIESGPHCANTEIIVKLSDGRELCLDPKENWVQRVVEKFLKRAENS
T1 sequence (Q38C91 whole entry): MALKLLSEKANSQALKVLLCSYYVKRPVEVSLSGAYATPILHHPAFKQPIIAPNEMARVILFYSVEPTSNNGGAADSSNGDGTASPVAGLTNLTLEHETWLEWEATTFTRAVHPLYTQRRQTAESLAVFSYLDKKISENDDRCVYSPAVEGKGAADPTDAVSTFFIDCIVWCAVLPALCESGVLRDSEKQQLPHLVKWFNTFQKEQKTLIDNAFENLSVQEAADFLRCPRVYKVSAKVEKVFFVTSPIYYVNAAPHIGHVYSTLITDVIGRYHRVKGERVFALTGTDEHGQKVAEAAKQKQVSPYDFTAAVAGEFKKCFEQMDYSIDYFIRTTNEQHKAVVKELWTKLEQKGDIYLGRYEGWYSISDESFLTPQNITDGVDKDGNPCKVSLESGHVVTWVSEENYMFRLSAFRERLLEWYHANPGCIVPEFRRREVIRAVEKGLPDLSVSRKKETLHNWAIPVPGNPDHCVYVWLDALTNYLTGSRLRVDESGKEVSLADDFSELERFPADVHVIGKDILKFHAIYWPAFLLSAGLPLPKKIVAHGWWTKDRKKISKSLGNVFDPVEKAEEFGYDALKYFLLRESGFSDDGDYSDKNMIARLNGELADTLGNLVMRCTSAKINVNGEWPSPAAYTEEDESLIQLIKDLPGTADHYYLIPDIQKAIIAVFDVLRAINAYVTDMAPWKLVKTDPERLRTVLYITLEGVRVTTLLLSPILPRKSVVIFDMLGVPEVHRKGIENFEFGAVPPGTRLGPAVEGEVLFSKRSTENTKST
Chain of Paired box protein Pax-8 (Q06710 whole entry): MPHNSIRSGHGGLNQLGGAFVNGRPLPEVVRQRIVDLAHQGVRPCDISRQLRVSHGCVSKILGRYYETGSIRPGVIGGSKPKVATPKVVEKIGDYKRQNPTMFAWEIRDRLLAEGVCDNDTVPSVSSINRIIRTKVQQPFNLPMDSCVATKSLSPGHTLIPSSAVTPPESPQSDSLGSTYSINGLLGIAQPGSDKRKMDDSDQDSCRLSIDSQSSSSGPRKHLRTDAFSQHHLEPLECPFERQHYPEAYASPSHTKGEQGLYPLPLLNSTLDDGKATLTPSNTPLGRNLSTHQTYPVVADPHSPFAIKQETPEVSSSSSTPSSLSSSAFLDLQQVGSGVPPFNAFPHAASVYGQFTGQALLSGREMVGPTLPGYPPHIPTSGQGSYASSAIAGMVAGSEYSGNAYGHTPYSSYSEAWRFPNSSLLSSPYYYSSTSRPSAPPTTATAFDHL

SMILES: COc1ccc(CNC(=O)CSc2n[nH]c3c4cc(OC)ccc4nc-3n2)cc1
- IC50 [1]: 76.2 µM (inactive)
- IC50 [2]: 83.3 µM (inactive)
- IC50 [3]: 8.05 µM (active)
- IC50 [4]: 71.6 µM (inactive)

SMILES: Cc1ccc(S(=O)(=O)N(C)C[C@H]2Oc3ccc(NS(=O)(=O)c4ccc(Cl)cc4)cc3CC(=O)N([C@H](C)CO)C[C@H]2C)cc1
- AC50 [5]: 2.35 µM (active)
- AC50 [6]: 39 µM (inactive)

SMILES: CCOc1cc(/C=C2\COc3ccccc3C2=O)cc(Br)c1OCC(=O)N(C)C
- CC50 [7]: 15.2 µM (active)
- EC50 (BJ [8]): 16.4 µM (active)
- EC50 (BJ [9]): 5.54 µM (inconclusive)
- EC50 (BJ [10]): 2.12 µM (active)
- EC50 [11]: 5.72 µM (active)
- IC50 [12]: 6.43 µM (active)
- AC50 (INS1): 7.22 µM (active)
- EC50 (BJ [13]): 8.64 µM (active)

SMILES: CC1=C(/C=C/C(C)=C/C=C/C(C)=C/C=C/C=C(C)/C=C/C=C(C)/C=C/C2=C(C)CCCC2(C)C)C(C)(C)CCC1 [BETA CAROTENE]
- IC50 (Genome polyprotein [14]): 34.8 µM (inactive)
- IC50 (Genome polyprotein [15]): 29.7 µM (not active)

SMILES: O=C(c1nnsc1S(=O)(=O)c1ccc(Cl)cc1)N1CCOCC1
- AC50 [16]: 15.3 µM (active)
- AC50 [17]: 4.76 µM (active)
- AC50 [18]: 31.7 µM (active)
- AC50 [19]: 13.9 µM (active)
- AC50 (Paired box protein Pax-8): 6.05 µM (active)
- EC50 [20]: > 195 µM (not active)
- AC50 [21]: 15.3 µM (active)
- AC50 [22]: 7.74 µM (active)
- AC50 [23]: 9.51 µM (active)
- IC50 (Interleukin-8 [24]): 1.25 µM (active)
- AC50 [25]: 12.2 µM (active)
- IC50 (Interleukin-8 [26]): 1.19 µM (active)
- AC50 [27]: 5.75 µM (active)
